Assay results as given in US8906865B2, “Treatment of inflammation and/or endotoxic shock” (ISIS Innovation Limited, priority 2007, dated 2014).

Experiments:
Format in all cases: cell-based, mouse
[1] = test system: Murine peritoneal macrophages (PMΦ); assay: Macrophage activation assay: LPS/IFNγ-induced inflammatory cytokine expression (ELISA, Luminex); conditions: for Percentage inhibition of LPS/IFNγ-induced inflammatory cytokine expression: RANTES / Percentage inhibition of LPS/IFNγ-induced inflammatory cytokine expression: TNFα / Percentage inhibition of LPS/IFNγ-induced inflammatory cytokine expression: IL-1β / Percentage inhibition of LPS/IFNγ-induced inflammatory cytokine expression: IL-6 / Percentage inhibition of LPS/IFNγ-induced inflammatory cytokine expression: IL-12 p40: PMΦ; for Percentage inhibition of LPS/IFNγ-induced inflammatory cytokine expression: RANTES / Percentage inhibition of LPS/IFNγ-induced inflammatory cytokine expression: TNFα: pre-treatment 1 h (0.1 pM-100 nM), then LPS 100 ng/ml + IFNγ 20 ng/ml 15 h, optimal dose (1 pM Chemerin and C15, 100 pM C13 and C19); for Anti-inflammatory activity in the MΦ activation assay: peptides 0.1 pM-100 nM; for Suppression of LPS/IFNγ-induced RANTES secretion (FIG. 2B) / Suppression of LPS/IFNγ-induced TNFα expression (FIG. 2B): C13m 100 pM, C15m 1 pM, C17m 1 pM, pre-treatment 1 h then LPS/IFNγ 15 h; for Percentage inhibition of LPS/IFNγ-induced inflammatory cytokine expression: IL-1β / Percentage inhibition of LPS/IFNγ-induced inflammatory cytokine expression: IL-6 / Percentage inhibition of LPS/IFNγ-induced inflammatory cytokine expression: IL-12 p40: pre-treatment 1 h, then LPS/IFNγ 15 h, 1 pM Chemerin and C15; for Optimal dose (maximal response) for suppression of LPS/IFNγ-induced cytokine expression: macrophage activation assay
Description: Murine peritoneal macrophages (PMθ, also referred to as PMΦ herein) were cultured under various conditions: Untreated; LPS (100 ng/ml) and IFNγ (20 ng/ml) for 15 h; Chemerin (1 pM) pre-treatment for 1 h then LPS/IFNγ for 15 h; Leupeptin (protease inhibitor; 15 mg/ml) and Chemerin (1 pM) for 1 h then LPS/IFNγ for 15 h; or Dexamethasone (positive control; 1 μM pre-treatment for 1 h then LPS/IFNγ for 15 h.
Murine PMθ were cultured under various conditions: Untreated, LPS (100 ng/ml) and IFNγ (20 ng/ml) for 15 h; Chemerin peptides (at a concentration of 1 pM-100 nM) pre-treatment for 1 h then LPS/IFNγ for 15 h. […] Experiments were performed with triplicate determinations for each treatment. Representative data from five independent experiments employing cells from different groups of C57B16/J mice are shown. p<0.01 **; p<0.001 *** relative to LPS/IFNγ treated samples.
With reference to Table 1, anti-inflammatory activity of chemerin-derived peptides—Murine PMΦ were cultured as described for FIG. 1B and were challenged with LPS (100 ng/ml) and IFNγ (20 ng/ml) for 15 h with/without pre-treatment with peptides (0.1 pM-100 nM) for 1 h. […] Peptide sequences are: C11 (P144-A154; […]), C13 (P144-S156; […]), C15 (A140-A154; […]), C19 (A138-S156; […]; Seq ID: No. 37), N19 (E23-K41; […] Seq ID No: 44) and M20 (K86-K105; […] Seq ID No. 45). Control peptides: scrambled C15 (C15-S; […]) and mutant C15 (C15-M; […]; F148A & F153A). Data represent mean percentage inhibition of cytokine production by classically activated macrophages from 4-8 independent experiments as determined by ELISA and Luminex assay.
1 ml 2% BioGEL polyacrylamide beads in sterile Phosphate-Buffered Saline (PBS) were injected intraperitoneally (ip) into C57B1/6J mice. Four days after ip BioGEL administration, mice were sacrificed by the CO, method according to Home Office guidelines. Peritoneal cavities were flushed with 10 ml sterile PBS-2 mM EDTA to harvest BioGEL-evoked/elicited cellular infiltrate. Suspensions of harvested cells were centrifuged at 1000×g for 5 mins at 4° C. The supernatants were discarded and cell pellets were resuspended in 6 mls OptiMEM medium supplemented with 2 mM Glutamine, 50 units/ml Penicillin and 50 μg/ml Streptomycin. Macrophages were quantified following incubation on ice for 5-10 mins with Turk's solution using a haemocytometer. Cell suspensions (2 mls; 1.5×10^6/well) were plated in six-well tissue culture plates (35 mm diameter: Costar, UK) and allowed to adhere for 2 hours at 37° C. in a humidified atmosphere containing 5% CO2, to isolate macrophage populations by adherence. This gave greater than 95% purity assessed by cytospinning, staining of cells with Methylene Blue and Eosin and counting based on cellular morphology. Nonadherent cells (mainly granulocytes) were discarded and wells were washed three times with sterile PBS to remove loosely adherent or dead cells. […] To determine PTX sensitivity and dependency upon proteolysis, cells were pre-incubated with PTX (200 ng/ml) or Leupeptin (15 μg/ml). Additional cells were treated with peptides alone. Supernatants were harvested and stored at −20° C. until use in Enzyme-Linked Immunosorbance Assays (ELISAs) and Luminex assays. Cells were lysed to allow extraction of total RNA by the TRIZOL method. Lysates were stored at −80° C. until RNA extraction following manufacturer's guidelines (Qiagen, RNeasy Mini Prep Kit).
RANTES, Tumour necrosis factor (TNFα) and CCL9 concentrations in cell supernatants were assessed by ELISA. IL-12 p40, IL-10, IL-1β, TNFα, MCP-1 (Monocyte chemoattractant protein-1) and IL-6 levels were determined by Luminex multiplex bead assay (Bio-rad 6 plex assay). Lower limits of detection for ELISAs were 0.1-0.5 ng/ml and 10-50 pg/ml for Luminex assays.

[2] = test system: PMθ (peritoneal macrophages); assay: Checkerboard analysis (chemotaxis versus chemokinesis); conditions: for Chemotaxis versus chemokinesis (FIG. 13): C140 10-1000 pM, C15m 10-1000 pM
Description: Checkerboard analysis allows differentiation between chemotaxis and chemokinesis. Chemotaxis is indicated by migration toward a higher concentration of chemoattractant in the lower well. Chemokinesis refers to increased non-directional cell movement and occurs regardless of the concentration gradient present. Checkerboard analysis was performed by pre-incubating cells with C140 (10-500 pM) or C15m (10-1000 pM) and allowing them to migrate towards C140 (10-1000 pM) or C15m (10-1000 pM), respectively in the lower well to form a checkerboard of concentrations.
More specifically, PMθ were recruited following a 4 day peritoneal stimulation with BioGEL beads. Peritoneal cavities of male C57B16/J mice were lavaged with 5 ml PBS-2 mM EDTA. Cells were centrifuged and resuspended in RPMI supplemented with 0.5% BSA and 25 mM Hepes. Cells (0.5×10^6) were incubated with C140 or C15m for 30 mins before the chemotaxis assay and then allowed to migrate towards chemoattractant in the bottom well over 4 h. Filters were fixed in 4% formalin, then nuclei were stained with DAPI and visualised. Serum free media (SFM) was used as a negative control (−/−) and the CC chemokine RANTES as a positive control (25 ng/ml). The bar graphs in FIG. 13 show the mean Migration Index±SEM for each treatment group. Each bar represents at least triplicate wells and at least 3 pictures taken per treatment. p<0.001 *** relative to SFM-treated wells.

[3] = test system: PMθ stimulated with Zymosan; assay: TNFα secretion by murine macrophages stimulated with Zymosan (ELISA); conditions: 1 pM pre-treatment 1 h, Zymosan 15 h
Description: PMθ were cultured under various conditions: Untreated; Zymosan for 15 h; Chemerin (1 pM) pre-treatment for 1 h+Zymosan for 15 h. The bar graphs show mean expression of TNFα as determined by ELISA±SEM. Experiments were performed with triplicate determinations for each treatment. Representative data from three independent experiments employing cells from different donors are shown in FIG. 12. p<0.001 ***; p<0.01 ** relative to Zymosan-treated samples. Dexa refers to dexamethasone ([…]), nd refers to below the lower limit of detection (0.25 ng/ml).

Molecule: AGEDPHGYALPGQAA (Mutant C15) [C15-M, control peptide, mutant C15 (F148A & F153A), reference compound]
- Percentage inhibition of LPS/IFNγ-induced inflammatory cytokine expression: RANTES [1]: 0%
- Percentage inhibition of LPS/IFNγ-induced inflammatory cytokine expression: TNFα [1]: 0%
- Anti-inflammatory activity in the MΦ activation assay [1]: devoid of anti-inflammatory activity

Molecule: AGEDPHGYFLPGQFA (listed as Mus sp.) [C15]
- Induction of macrophage chemotaxis relative to C140 [2]: much weaker inducer of macrophage chemotaxis
- Chemotaxis versus chemokinesis (FIG. 13) [2]: elicit true chemotaxis rather than chemokinesis
- Suppression of LPS/IFNγ-induced RANTES secretion (FIG. 2B) [1]: 41%
- Suppression of LPS/IFNγ-induced TNFα expression (FIG. 2B) [1]: 56%
- Percentage inhibition of LPS/IFNγ-induced inflammatory cytokine expression: RANTES [1]: 47%
- Percentage inhibition of LPS/IFNγ-induced inflammatory cytokine expression: TNFα [1]: 61%
- Percentage inhibition of LPS/IFNγ-induced inflammatory cytokine expression: IL-1β [1]: 54%
- Percentage inhibition of LPS/IFNγ-induced inflammatory cytokine expression: IL-6 [1]: 43%
- Percentage inhibition of LPS/IFNγ-induced inflammatory cytokine expression: IL-12 p40 [1]: 47%
- Optimal dose (maximal response) for suppression of LPS/IFNγ-induced cytokine expression [1]: 1 pM
- Suppression of Zymosan-induced TNF expression (FIG. 12) [3]: 21%

Molecule: AGEDPHGYFLPGQFAFS (listed as Mus sp.) [C17m]
- Suppression of LPS/IFNγ-induced RANTES secretion (FIG. 2B) [1]: 49%
- Suppression of LPS/IFNγ-induced TNFα expression (FIG. 2B) [1]: 66%
- Suppression of Zymosan-induced TNF expression (FIG. 12) [3]: 30%

Molecule: GLFHDQAGPPAGYEF (Scrambled C15) [C15-S, control peptide, scrambled C15, reference compound]
- Percentage inhibition of LPS/IFNγ-induced inflammatory cytokine expression: RANTES [1]: 0%
- Percentage inhibition of LPS/IFNγ-induced inflammatory cytokine expression: TNFα [1]: 0%
- Anti-inflammatory activity in the MΦ activation assay [1]: devoid of anti-inflammatory activity

B1: Chemerin: 140 amino acid mouse Chemerin protein of Sequence ID no: 34 (protein, listed as Mus sp.)
chain: TVGTEPELSETQRRSLQVALEEFHKHPPVQLAFQEIGVDRAEEVLFSAGTFVRLEFKLQQTNCPKKDWKKPECTIKPNGRRRKCLACIKMDPKGKILGRIVHCPILKQGPQDPQELQCIKIAQAGEDPHGYFLPGQFAFS
- Chemotaxis versus chemokinesis (FIG. 13) [2]: elicit true chemotaxis rather than chemokinesis
- Percentage inhibition of LPS/IFNγ-induced inflammatory cytokine expression: RANTES [1]: 40%
- Percentage inhibition of LPS/IFNγ-induced inflammatory cytokine expression: TNFα [1]: 70%
- Percentage inhibition of LPS/IFNγ-induced inflammatory cytokine expression: IL-1β [1]: 60%
- Percentage inhibition of LPS/IFNγ-induced inflammatory cytokine expression: IL-6 [1]: 42%
- Percentage inhibition of LPS/IFNγ-induced inflammatory cytokine expression: IL-12 p40 [1]: 54%
- Pertussis toxin sensitivity of the effects on macrophages (FIG. 1D) ([1]; chemerin 0.1-1 pM ± PTX 200 ng/ml): pertussis toxin-sensitive
- Optimal dose (maximal response) for suppression of LPS/IFNγ-induced cytokine expression [1]: 1 pM
